Experimental data reported in paper PMC9782245, “Synthesis and Structural Optimization of 2,7,9-Trisubstituted purin-8-ones as FLT3-ITD Inhibitors” (International Journal of Molecular Sciences, 2022).
“And” between values parts separate entries of the source, which are not always exact repeats. Equal values may be shown once.

Assays:
K562 cells [1] = assay: Flow cytometric cell cycle analysis, K562; assay type: cell-based, Human; details: 24 h; for effect on cell cycle (G1 arrest) in K562: 200 nM
Experimental: (§1) FLT3 inhibition causes G1-cell cycle arrest in FLT3-dependent cell lines such as MV4-11; we, therefore, performed flow cytometric analysis to evaluate cell cycle changes in MV4-11 and K562 cell lines treated with 200 nM compounds for 24 h. […] Specifically, 18 compounds arrested >85% of cells in the G1 phase, which is >30% cells in the G1 phase of the cell cycle than in control cells (Figure 4A).
(§2) Finally, we performed flow cytometric analysis with different concentrations of 15a in MV4-11 and MOLM13 (another FLT-ITD positive cell line) and K562 cell lines treated for 24 h (Figure 5).
(§3) Asynchronously growing cells were seeded into a 96-well plate and, after a preincubation period, treated with tested compounds for 24 h. The treated cells were stained directly (or after trypsinization for the adherent cells) with the 5× staining solution (17 mM trisodium citrate dihydrate, 0.5% IGEPAL CA-630, 7.5 mM spermine tetrahydrochloride, and 2.5 mM Tris; pH 7.6 containing […] propidium iodide). After the staining, DNA content was analyzed using flow cytometry using a 488 nm laser (BD FACS Verse with software BD FACSuite^TM, version 1.0.6). Cell cycle distribution was analyzed using ModFit LT (Verity Software House, version 5.0). Palbociclib, trilaciclib, and quizartinib were purchased from MedChemExpress, Monmouth Junction, NJ, USA.

CDK4/D1 = CDK4/D1 (Homo sapiens, UniProt P11802); assay: Kinase inhibition assay CDK4/D1; assay type: biochemical; details: at least duplicate experiments; read-out: IC50 CDK4/D1
Chain of CDK4/D1 (P11802 whole entry): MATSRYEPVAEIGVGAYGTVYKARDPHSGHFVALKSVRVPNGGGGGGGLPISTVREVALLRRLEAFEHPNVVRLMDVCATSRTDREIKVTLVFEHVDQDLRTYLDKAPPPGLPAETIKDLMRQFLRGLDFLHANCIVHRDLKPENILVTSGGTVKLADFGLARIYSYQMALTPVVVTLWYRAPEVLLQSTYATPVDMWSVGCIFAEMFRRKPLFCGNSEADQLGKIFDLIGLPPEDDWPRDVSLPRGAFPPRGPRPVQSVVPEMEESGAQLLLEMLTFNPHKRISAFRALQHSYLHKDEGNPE
Chain of CDK4/D1 (P24385 whole entry partner): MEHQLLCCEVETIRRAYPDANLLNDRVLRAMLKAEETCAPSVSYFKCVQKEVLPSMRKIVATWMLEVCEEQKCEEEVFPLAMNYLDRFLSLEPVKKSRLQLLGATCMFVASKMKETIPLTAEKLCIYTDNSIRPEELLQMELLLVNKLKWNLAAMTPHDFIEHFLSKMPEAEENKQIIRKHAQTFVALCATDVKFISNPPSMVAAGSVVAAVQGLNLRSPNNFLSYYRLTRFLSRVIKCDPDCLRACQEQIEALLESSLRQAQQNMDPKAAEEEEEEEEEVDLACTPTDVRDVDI
Experimental: (§4) Newly prepared compounds 12–15 were assayed for inhibition of FLT3-ITD kinase as well as CDK4 and CDK2, known off-targets of structurally related compounds. We observed that CDK4 was sensitive to nearly all compounds with IC50 values in mid-nanomolar values.
(§5) CDK/cyclin complexes and FLT3 kinases were assayed as previously described. Protein kinase selectivity was evaluated at a single concentration (1 µM) by screening against 30 enzymes at Eurofins Discovery (France).

FLT3-ITD = target: T1, FLT3-ITD (Homo sapiens, UniProt P36888, ITD); assay: Kinase inhibition assay FLT3-ITD; assay type: biochemical; details: at least duplicate experiments; read-out: IC50 FLT3-ITD
T1 sequence (P36888 27-993): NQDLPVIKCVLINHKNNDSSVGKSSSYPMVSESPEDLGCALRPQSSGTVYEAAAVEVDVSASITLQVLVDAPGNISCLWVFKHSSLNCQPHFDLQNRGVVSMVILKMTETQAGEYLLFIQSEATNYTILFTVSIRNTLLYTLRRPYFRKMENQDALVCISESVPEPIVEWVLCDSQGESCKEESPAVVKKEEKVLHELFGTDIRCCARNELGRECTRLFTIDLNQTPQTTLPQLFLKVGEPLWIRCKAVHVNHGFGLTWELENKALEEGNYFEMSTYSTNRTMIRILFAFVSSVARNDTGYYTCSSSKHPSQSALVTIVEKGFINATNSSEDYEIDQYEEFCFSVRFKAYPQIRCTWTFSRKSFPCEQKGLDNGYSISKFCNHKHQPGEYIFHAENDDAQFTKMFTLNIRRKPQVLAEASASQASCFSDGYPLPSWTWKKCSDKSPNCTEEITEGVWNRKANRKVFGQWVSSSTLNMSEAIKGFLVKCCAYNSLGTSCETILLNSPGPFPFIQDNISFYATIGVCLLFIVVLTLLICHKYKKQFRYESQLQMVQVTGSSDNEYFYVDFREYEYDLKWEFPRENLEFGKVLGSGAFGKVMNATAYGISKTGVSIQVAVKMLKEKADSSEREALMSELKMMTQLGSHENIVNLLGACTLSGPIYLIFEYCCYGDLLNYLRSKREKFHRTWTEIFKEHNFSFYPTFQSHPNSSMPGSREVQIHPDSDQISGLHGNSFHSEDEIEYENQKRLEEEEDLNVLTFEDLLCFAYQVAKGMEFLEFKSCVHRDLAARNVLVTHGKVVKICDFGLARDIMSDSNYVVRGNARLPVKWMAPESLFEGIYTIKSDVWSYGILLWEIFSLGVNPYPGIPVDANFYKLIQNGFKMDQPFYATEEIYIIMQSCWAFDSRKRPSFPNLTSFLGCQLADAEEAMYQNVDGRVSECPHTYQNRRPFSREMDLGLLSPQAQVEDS
Experimental: as §4, §5

MV4-11 cells [2] = assay: Resazurin-based viability assay, MV4-11; assay type: cell-based, Human; details: Homo sapiens, MV4-11; 72 h, resazurin; at least duplicate experiments
Source text: (§6) In parallel to kinase assays, we measured the effect of compounds on the viability of cancer cell lines MV4-11 and K562 using a resazurin-based assay. MV4-11 is an AML cell line dependent on a constitutively activated FLT3-ITD kinase with high sensitivity to FLT3 inhibition, K562 cells (chronic myelogenous leukemia) are independent on FLT3.
(§7) Human cell lines were obtained from the European Collection of Authenticated Cell Cultures (K562) and Cell lines service (MV4-11) and were cultivated according to the provider’s instructions. Briefly, cells were maintained in RPMI-1640 (MV4-11) or DMEM (K562) supplemented with 10% fetal bovine serum, penicillin (100 U/mL), and streptomycin (0.1 mg/mL) at 37 °C in 5% CO2. For the viability assays, cells were treated in triplicate with six different doses of each compound for 72 h. After treatments, the resazurin (Sigma Aldrich, St. Louis, MO, USA) solution was added for 4 h, and the fluorescence of resorufin corresponding to live cells was measured at 544/590 nm (excitation/emission) using a Fluoroskan Ascent microplate reader (Labsystems). The GI50 value, the drug concentration lethal to 50% of the cells, was calculated from the dose-response curves that resulted from the assays.

K562 cells [3] = assay: Resazurin-based viability assay, K562; assay type: cell-based; details: Homo sapiens, 72 h, at least duplicate experiments
Source text: as §6, §7

CDK2/E = CDK2/E (Homo sapiens, UniProt P24941); assay: Kinase inhibition assay CDK2/E; assay type: biochemical; details: at least duplicate experiments; read-out: IC50 CDK2/E
Experimental: as §4, §5

MV4-11 cells [4] = assay: Flow cytometric cell cycle analysis, MV4-11; assay type: cell-based, Human; details: 24 h; for effect on cell cycle (G1 arrest) in MV4-11: 200 nM
Experimental: as §1, §2, §3

MOLM13 cells = assay: Flow cytometric cell cycle analysis, MOLM13; assay type: cell-based; details: increasing doses, 24 h
Experimental: as §2
as §3, with “5.0).” for “5.0). Palbociclib, trilaciclib, and quizartinib were purchased from MedChemExpress, Monmouth Junction, NJ, USA.”

[5] = test system: oncogenic variants of FLT3; set-up: method as in PMID 28418845; details: cited from earlier work

IC50 (CDK4/D1)	IC50 (FLT3-ITD)	GI50 (MV4-11 cells [2])	GI50 (K562 cells [3])	IC50 (CDK2/E)	melting point	Compound	effect on cell cycle (G1 arrest) in K562 (K562 cells [1])	effect on cell cycle (G1 arrest) in MV4-11 (MV4-11 cells [4])	cell cycle changes in K562 (K562 cells [1]; different concentrations)	cells in the G1 phase, MV4-11 (MV4-11 cells [4]; increasing doses)	cells in the G1 phase, MOLM13 (MOLM13 cells)	affinity to oncogenic variants of FLT3 [5]
0.012 µM	0.085 µM	0.44 µM	8.21 µM	0.23 µM	228 to 230 °C	CC1CCC(n2c(C(F)(F)F)nc3cnc(Nc4ccc(N5CCNCC5)cc4)nc32)CC1 (stereo not shown) [12c]	moderate G1 block					
> 20 µM	6.9 µM	5.65 µM	> 100 µM	> 20 µM		Cn1c(=O)[nH]c2nc(Nc3ccc(N4CCNCC4)cc3)ncc21 [14a]		did not significantly affect the cell cycle				
0.338 µM	0.075 µM	1.81 µM	3.59 µM	> 1 µM and 1.02 µM		Cn1c(=O)n(C2CCCCCCCCCCC2)c2nc(Nc3ccc(N4CCNCC4)cc3)ncc21 [14j]		did not significantly affect the cell cycle				
1.87 µM	2.94 µM	1.25 µM	16.7 µM	0.54 µM	152 to 154 °C	Cc1ccccc1-n1c(=O)n(C)c2cnc(Nc3ccc(N4CCNCC4)cc3)nc21 [14n]		did not significantly affect the cell cycle				
						CC(=O)c1c(C)c2cnc(Nc3ccc(N4CCNCC4)cn3)nc2n(C2CCCC2)c1=O [palbociclib, reference compound]	significantly arrest both cell lines in the G1 phase	significantly arrest both cell lines in the G1 phase				
						CC(C)(C)c1cc(NC(=O)Nc2ccc(-c3cn4c(n3)sc3cc(OCCN5CCOCC5)ccc34)cc2)no1 [quizartinib, reference compound]	arrested selectively only MV4-11	arrested selectively only MV4-11	did not show any changes	up to 90%	up to 90%	
						CN1CCN(c2ccc(Nc3ncc4cc5n(c4n3)C3(CCCCC3)CNC5=O)nc2)CC1 [trilaciclib]						low nanomolar affinity
